We go through one compound from BindingDB's records for doi:10.1016/j.cbi.2005.11.002 (Laboratoire De Pharmacologie-Toxicologie Inra, 2006).

The target of this test is ATP-binding cassette sub-family C member 2 (Homo sapiens, UniProt Q92887). The test can be described thus: TP_TRANSPORTER: inhibition of ATPase activity in Sf9 cells (membrane vesicles).
Sequence of ATP-binding cassette sub-family C member 2 (Q92887 whole entry): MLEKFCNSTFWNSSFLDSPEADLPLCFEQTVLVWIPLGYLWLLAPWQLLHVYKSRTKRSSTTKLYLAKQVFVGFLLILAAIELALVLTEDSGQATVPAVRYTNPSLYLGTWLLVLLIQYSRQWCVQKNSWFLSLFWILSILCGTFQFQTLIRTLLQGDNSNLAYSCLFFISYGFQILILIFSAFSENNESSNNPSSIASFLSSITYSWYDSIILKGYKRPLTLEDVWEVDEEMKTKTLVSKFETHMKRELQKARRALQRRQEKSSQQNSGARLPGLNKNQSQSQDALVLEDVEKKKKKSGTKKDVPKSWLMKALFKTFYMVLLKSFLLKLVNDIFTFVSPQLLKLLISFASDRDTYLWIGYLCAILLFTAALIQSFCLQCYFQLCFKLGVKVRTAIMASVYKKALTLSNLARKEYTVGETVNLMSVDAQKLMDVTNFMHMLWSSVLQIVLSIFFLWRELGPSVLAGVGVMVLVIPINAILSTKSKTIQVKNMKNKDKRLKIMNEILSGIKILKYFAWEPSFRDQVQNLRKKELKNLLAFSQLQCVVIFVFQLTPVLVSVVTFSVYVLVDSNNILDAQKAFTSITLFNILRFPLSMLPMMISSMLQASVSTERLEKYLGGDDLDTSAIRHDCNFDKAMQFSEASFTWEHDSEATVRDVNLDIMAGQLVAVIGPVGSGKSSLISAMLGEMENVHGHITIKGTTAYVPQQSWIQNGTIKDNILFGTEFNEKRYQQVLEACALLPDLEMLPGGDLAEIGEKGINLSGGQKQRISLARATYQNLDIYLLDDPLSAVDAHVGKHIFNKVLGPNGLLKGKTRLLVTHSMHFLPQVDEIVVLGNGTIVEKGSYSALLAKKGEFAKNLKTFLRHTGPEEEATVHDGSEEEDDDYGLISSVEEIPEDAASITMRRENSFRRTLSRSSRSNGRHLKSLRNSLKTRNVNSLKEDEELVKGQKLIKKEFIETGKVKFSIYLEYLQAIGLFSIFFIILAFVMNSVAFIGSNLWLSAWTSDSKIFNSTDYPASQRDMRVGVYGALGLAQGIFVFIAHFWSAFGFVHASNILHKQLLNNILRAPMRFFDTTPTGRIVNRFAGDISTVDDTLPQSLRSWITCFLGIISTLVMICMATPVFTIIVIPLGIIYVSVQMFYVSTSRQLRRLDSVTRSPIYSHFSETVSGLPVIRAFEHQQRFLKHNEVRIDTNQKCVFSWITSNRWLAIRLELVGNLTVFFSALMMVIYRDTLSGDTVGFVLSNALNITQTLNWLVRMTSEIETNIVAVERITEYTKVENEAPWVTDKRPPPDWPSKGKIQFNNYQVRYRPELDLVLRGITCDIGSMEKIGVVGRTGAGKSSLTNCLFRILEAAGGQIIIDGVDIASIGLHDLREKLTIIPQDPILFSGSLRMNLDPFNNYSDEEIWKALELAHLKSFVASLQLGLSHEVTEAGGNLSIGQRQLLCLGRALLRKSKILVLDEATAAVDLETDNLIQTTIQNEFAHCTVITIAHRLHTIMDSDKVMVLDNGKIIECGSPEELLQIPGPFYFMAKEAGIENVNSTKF

For orientation: IC50 means the concentration at which inhibition is half-maximal. Read a high IC50 as lower potency. `CC[C@H](C)[C@H]1O[C@]2(CC[C@@H]1C)C[C@@H]1C[C@@H](C/C=C(\C)[C@@H](O[C@H]3C[C@H](OC)[C@@H](O[C@H]4C[C@H](OC)[C@@H](O)[C@H](C)O4)[C@H](C)O3)[C@@H](C)/C=C/C=C3\CO[C@@H]4[C@H](O)C(C)=C[C@@H](C(=O)O1)[C@]34O)O2` [ABAMECTIN] registered a concentration for half-maximal inhibition (IC50) of 18 µM.
